Assays:
[1] = target: K-Ras^G12C : hSOS1 interaction (Homo sapiens, UniProt Q07889); test: Biochemical assay 1: K-Ras^G12C interaction assay with hSOS1 (HTRF); format: binding; conditions: E-notation values; unit inferred; read-out: Assay 1 (KRAS-SOS interaction) IC50
[2] = target: Epidermal Growth Factor Receptor (EGFR) (Homo sapiens (Human), UniProt P00533); test: EGFR kinase assay (TR-FRET); format: biochemical; conditions: E-notation values; unit inferred; read-out: EGFR-assay IC50
How it was run: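 EGFR purified from A431 cells was preincubated with compound 15 min at 22° C in pH 7.0 Hepes buffer with MgCl2, MnCl2 and vanadate before reaction with a biotinylated peptide. After EDTA stop, phosphopeptide was detected by TR-FRET (anti-phosphotyrosine Tb-cryptate, streptavidin-XL665) as the 665/620 nm emission ratio.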

Sequence of Epidermal Growth Factor Receptor (EGFR) (P00533 25-1210): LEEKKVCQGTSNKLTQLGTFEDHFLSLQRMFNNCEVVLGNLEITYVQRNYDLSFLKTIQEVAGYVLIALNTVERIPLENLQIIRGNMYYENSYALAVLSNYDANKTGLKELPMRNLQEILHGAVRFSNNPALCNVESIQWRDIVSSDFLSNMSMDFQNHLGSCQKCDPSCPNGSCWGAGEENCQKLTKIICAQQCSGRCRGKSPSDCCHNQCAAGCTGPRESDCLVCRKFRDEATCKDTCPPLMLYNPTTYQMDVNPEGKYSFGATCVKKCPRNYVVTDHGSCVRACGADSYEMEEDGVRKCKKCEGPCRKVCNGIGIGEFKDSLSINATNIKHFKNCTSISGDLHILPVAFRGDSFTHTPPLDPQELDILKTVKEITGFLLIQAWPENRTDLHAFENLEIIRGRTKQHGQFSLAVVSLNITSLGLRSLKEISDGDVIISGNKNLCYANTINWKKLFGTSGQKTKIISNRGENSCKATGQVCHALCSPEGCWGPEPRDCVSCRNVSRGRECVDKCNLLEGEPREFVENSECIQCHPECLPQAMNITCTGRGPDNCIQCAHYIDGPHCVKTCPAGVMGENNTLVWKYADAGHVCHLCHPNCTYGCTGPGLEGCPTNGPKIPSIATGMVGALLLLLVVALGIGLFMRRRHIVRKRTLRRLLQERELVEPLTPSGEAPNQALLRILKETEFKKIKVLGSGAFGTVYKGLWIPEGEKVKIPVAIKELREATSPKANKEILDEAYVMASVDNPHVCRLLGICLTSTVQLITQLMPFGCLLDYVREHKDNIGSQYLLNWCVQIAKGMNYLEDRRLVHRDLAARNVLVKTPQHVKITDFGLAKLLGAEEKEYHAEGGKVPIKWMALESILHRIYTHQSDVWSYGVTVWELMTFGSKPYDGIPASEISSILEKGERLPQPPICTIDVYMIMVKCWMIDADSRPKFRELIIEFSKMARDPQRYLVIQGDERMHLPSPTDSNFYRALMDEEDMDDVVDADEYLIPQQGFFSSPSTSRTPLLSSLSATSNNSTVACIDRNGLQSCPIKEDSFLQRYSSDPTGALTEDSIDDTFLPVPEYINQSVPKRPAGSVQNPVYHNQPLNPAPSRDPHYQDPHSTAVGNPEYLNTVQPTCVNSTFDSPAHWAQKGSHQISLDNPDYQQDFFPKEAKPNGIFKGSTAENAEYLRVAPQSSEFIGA

Row | Compound | IC50 [1] [nM] | IC50 [2] [nM]
1 | CC(=O)NCCNc1ccc2nc(C)nc(NC(C)c3ccc(-c4ccccc4CN(C)C)s3)c2c1 (centres unmarked) [Example 427, N-{2-[(4-{[1-(5-{2-[(dimethylamino)methyl]phenyl}thiophen-2-yl)ethyl]amino}-2-methylquinazolin-6-yl)amino]ethyl}acetamide] | 58.4 | > 20000
2 | COc1cc2nc(C)nc(NC(C)c3sc(Br)cc3Cl)c2cc1OC (centres unmarked) [Example 428, N-[1-(5-bromo-3-chlorothiophen-2-yl)ethyl]-6,7-dimethoxy-2-methylquinazolin-4-amine] | 916 | > 20000
3 | COc1cc2nc(C)nc(NC(C)c3sc(-c4ccccc4CNC(=O)OC(C)(C)C)cc3Cl)c2cc1OC (centres unmarked) [Example 429, tert-butyl [2-(4-chloro-5-{1-[(6,7-dimethoxy-2-methylquinazolin-4-yl)amino]ethyl}thiophen-2-yl)benzyl]carbamate] | 6090 | > 20000
4 | COc1cc2nc(C)nc(NC(C)c3cc(Cl)c(-c4ccccc4CN)s3)c2cc1OC (centres unmarked) [Example 430, N-[1-{5-[2-(aminomethyl)phenyl]-4-chlorothiophen-2-yl}ethyl]-6,7-dimethoxy-2-methylquinazolin-4-amine] | 594 | > 20000
5 | COc1cc2nc(C)nc(NC(C)c3cc(Cl)c(-c4ccccc4CN(C)C)s3)c2cc1OC (centres unmarked) [Example 431, N-[1-(4-chloro-5-{2-[(dimethylamino)methyl]phenyl}thiophen-2-yl)ethyl]-6,7-dimethoxy-2-methylquinazolin-4-amine] | 324 | > 20000
6 | COc1cc2nc(C)nc(NC(C)c3cc(Cl)c(Br)s3)c2cc1OC (centres unmarked) [Example 432, N-[1-(5-bromo-4-chlorothiophen-2-yl)ethyl]-6,7-dimethoxy-2-methylquinazolin-4-amine] | 16700 | > 20000
7 | Cc1nc(NC(C)c2ccc(-c3ccccc3CN(C)C)s2)c2cc(NCCN3CCOCC3)ccc2n1 (centres unmarked) [Example 433, N4-[1-(5-{2-[(dimethylamino)methyl]phenyl}-2-thienyl)ethyl]-2-methyl-N6-[2-(morpholin-4-yl)ethyl]quinazoline-4,6-diamine] | 77.1 | > 20000
8 | Cc1nc(NC(C)c2ccc(Br)s2)c2cc(N3CCN(C)C(=O)C3)ccc2n1 (centres unmarked) [Example 434, 4-(4-{[1-(5-bromothiophen-2-yl)ethyl]amino}-2-methylquinazolin-6-yl)-1-methylpiperazin-2-one] | 2840 | 16600
9 | Cc1nc(NC(C)c2ccc(-c3ccccc3CN(C)C)s2)c2cc(N3CCN(C)C(=O)C3)ccc2n1 (centres unmarked) [Example 435, 4-(4-{[1-(5-{2-[(dimethylamino)methyl]phenyl}thiophen-2-yl)ethyl]amino}-2-methylquinazolin-6-yl)-1-methylpiperazin-2-one] | 84.4 | > 20000
10 | COC(=O)C(C)(C)c1ccccc1-c1ccc(C(C)Nc2nc(C)nc3cc(OC)c(OC)cc23)s1 (centres unmarked) [Example 436, methyl 2-[2-(5-{1-[(6,7-dimethoxy-2-methylquinazolin-4-yl)amino]ethyl}thiophen-2-yl)phenyl]-2-methylpropanoate] | 2390 | > 20000
11 | COc1cc2nc(C)nc(NC(C)c3sc(-c4ccccc4CN)cc3Cl)c2cc1OC (centres unmarked) [Example 437, N-[1-{5-[2-(aminomethyl)phenyl]-3-chlorothiophen-2-yl}ethyl]-6,7-dimethoxy-2-methylquinazolin-4-amine] | 145 | > 20000
12 | Cc1nc(NC(C)c2ccc(-c3ccccc3CN(C)C)s2)c2cc(NS(C)(=O)=O)ccc2n1 (centres unmarked) [Example 438, N-(4-{[1-(5-{2-[(dimethylamino)methyl]phenyl}thiophen-2-yl)ethyl]amino}-2-methylquinazolin-6-yl)methanesulfonamide] | 90.2 | > 20000
13 | COc1ccc(-c2ccc(C(C)Nc3nc(C)nc4cc(OC)c(OC)cc34)s2)c(CN(C)C)c1 (centres unmarked) [Example 439, N-[1-(5-{2-[(dimethylamino)methyl]-4-methoxyphenyl}thiophen-2-yl)ethyl]-6,7-dimethoxy-2-methylquinazolin-4-amine] | 277 | > 20000

From patent publication US20240083857A1, “2-Methyl-Quinazolines” (Bayer Pharma Aktiengesellschaft, priority 2017, published 2024)
